This note sets out measurements from patent US20160060352A1, “COMPOSITIONS AND METHODS FOR DETECTION AND TREATMENT OF HEPA[…]” (VIVENTIA BIO INC., priority 2013, published 2016).

For one assay, the system named is CD13. Put plainly: FACS analysis of stem/progenitor marker CD13 after treatment. It is filed as cell-based, human. The conditions noted are these: HuH-7 and Hep3B cells. In general terms: A flow cytometer gives signals particle by particle.
For another assay, the system named is HuH-1. Put plainly: MTS cell growth assay, HuH-1. The format is cell-based. The settings on record: Homo sapiens, 48 h incubation.
Assay [1] concerns Ep-CAM^high cell lines (HuH-7, HepG2, Hep3B and HuH-1). Put plainly: Sphere formation assay. It is filed as cell-based, human. The conditions noted are these: 48 h treatment (VB4-845 1-10 pM, 5-FU 1-5 μg/ml), 7 days of culture.
Procedure: Briefly, 1×10^6 cells of HuH-7, HepG2, Hep3B and HuH-1 were seeded in four 10 cm dishes. […] After 48h, the medium was changed to drug-free medium and incubated for 24 h. After cell viability was confirmed by trypan blue exclusion, the remaining viable cells were collected and plated separately at 1×10^2 cells in low attachment plates (96-well Ultra Low Cluster Plate; Costar, Corning, N.Y.), and incubated in serum-free Dulbecco's modified Eagle medium/F12 medium (Invitrogen). Sphere formation was observed using AxioObserver (Carl Zeiss, Oberkochen, Germany), and the images were acquired digitally using AxioVision software (Carl Zeiss).
The next assay deals with Ep-CAM^low cell lines. As to the kind of experiment: Cell proliferation assay (viable cell count, trypan blue), Ep-CAM^low cell lines. The settings on record: VB4-845 10 pM and 5-FU 1-5 μg/ml, 48 h; p>0.05. The format is cell-based, human. Here is the method: (A) Expression of Ep-CAM was analyzed by flow cytometry in 8 HCC cell lines. […] Cell growth was measured in MTS assays. […] Columns, alive cells (%); vertical bars, standard deviation.
(§1) HCC cell lines were seeded in 96-well plates at 3×10^3 cells per well in a total volume of 50 μl of culture media. […] Cell viability was monitored using CellTiter 96 AQueous One Solution Cell Proliferation Assay Kit (Promega) and half-maximal inhibitory concentration (IC50) values were calculated. The mean values and standard deviations of IC50 were calculated in triplicate for each cell line. To investigate cell viability, HCC cell lines were seeded in 6-well plates at 1×10^5 cells per well in a total volume of 2 ml of culture media. […] The remaining viable cells were counted using a Cytorecon (GE Healthcare) after staining with trypan blue to exclude the dead cells. Each analysis was performed in triplicate, and the data expressed as means±standard deviations.

The subject of a further assay is CD133. Put plainly: FACS analysis of stem/progenitor marker CD133 after treatment. It is filed as cell-based, human. The settings on record: HuH-7, HepG2, and Hep3B cells, compared with the control.
A further assay concerns HepG2. As to the kind of experiment: MTS cell growth assay, HepG2. The format is cell-based. The settings on record: Homo sapiens, 48 h incubation.
The next assay deals with HLE. Put plainly: MTS cell growth assay, HLE. The settings on record: Homo sapiens, 48 h incubation. The format is cell-based. Here is the method:
(§2) Human HCC cell lines Hep3B, PLC/PRF/5, and SK-Hep1 were obtained from the American Type Culture Collection (Manassas, Va., USA). Other human HCC cell lines HuH-7, HuH-1, HepG2, HLE, and HLF were obtained from the Human Science Research Resources Bank (Osaka, Japan). HuH-7, HepG2, Hep3B, and SK-Hep1 cells were cultured in log growth phase in 1640 RPMI (Invitrogen, Carlsbad, Calif.) and HuH-1, HLE, HLF, and PLC/PRF/5, cells were cultured in Dulbecco's modified Eagle medium (Invitrogen) with 5% fetal bovine serum (Sigma, St. Louis, Mo.) for HLF cells or 10% FBS for the remaining cell lines. All media were supplemented with 1% PenStrep (Sigma). […]
as §1, with “line.” for “line. To investigate cell viability, HCC cell lines were seeded in 6-well plates at 1×10^5 cells per well in a total volume of 2 ml of culture media.”
(In general: Formazan colour is commonly taken as a measure of viable cells.)

The next assay relates to PLC/PRF/5. Put plainly: MTS cell growth assay, PLC/PRF/5. The format is cell-based. The settings on record: Homo sapiens, 48 h incubation. As to the method:
as §2
as §1, with “line.” for “line. To investigate cell viability, HCC cell lines were seeded in 6-well plates at 1×10^5 cells per well in a total volume of 2 ml of culture media.”

Assay [2] relates to HuH-7 subcutaneous xenografts. As to the kind of experiment: Subcutaneous xenograft model. It is filed as in vivo, NOD.CB17-PRkdcScid/J mice. The settings on record: three weeks after initiation; VB4-845 30 μg/kg i.v., 5-FU 30 mg/kg i.p., three times a week for 2 weeks.
Procedure: Twenty five-week-old female NOD.CB17-PRkdcScid/J mice purchased from Charles River Laboratory Inc. (Kanagawa, Japan) were injected with 1×10^6 HuH-7 cells mixed with the same amount of Matrigel (BD Biosciences) subcutaneously into the both flanks of mice under anesthesia. […] Tumor size was measured using calipers three times a week and tumor volumes calculated using the following equation: volume=(length)×(width)2×0.5. The mice were sacrificed three weeks after the initiation of treatment.
A further assay has as its system SK-Hep1 cells. Put plainly: MTS cell growth assay, SK-Hep1. It is filed as cell-based. The settings on record: Homo sapiens, 48 h incubation. Here is the method: as §2
as §1, with “line.” for “line. To investigate cell viability, HCC cell lines were seeded in 6-well plates at 1×10^5 cells per well in a total volume of 2 ml of culture media.”

A further assay relates to Hep3B. As to the kind of experiment: MTS cell growth assay, Hep3B. It is filed as cell-based. The conditions noted are these: Homo sapiens, 48 h incubation.
For a further assay, the system named is HLF. As to the kind of experiment: MTS cell growth assay, HLF. It is filed as cell-based. The conditions noted are these: Homo sapiens, 48 h incubation. Here is the method: as §2
as §1, with “line.” for “line. To investigate cell viability, HCC cell lines were seeded in 6-well plates at 1×10^5 cells per well in a total volume of 2 ml of culture media.”

In a further assay the test system is HuH-7. Put plainly: MTS cell growth assay, HuH-7. It is filed as cell-based. The settings on record: Homo sapiens, 48 h incubation.

In brackets after ≈: the same amount, converted by molar mass.

Source text for CD133: For flow cytometry, FACSCanto™ II (BD Biosciences, San Jose, Calif.) was used. Cancer cells were washed with phosphate-buffered saline, and then enzymatically dissociated with 0.05% trypsin-EDTA (Invitrogen). The trypsinized cells were suspended in FACS buffer, and analyzed on FACSCanto™ II using FACSDiva software (BD Biosciences). For the analysis of hepatic stem/progenitor markers, primary antibodies against Ep-CAM (#324206; Biolegend, San Diego, Calif.), CD13 (#555394; BD Pharmingen), CD44 (#555479; BD Pharmingen), CD90 (#328110; BioLegend), CD133 (#130-080-801; Miltenyi Biotec, Gladbach, Germany), Mouse IgG1 κtype (#555749; BioLegend), and Mouse IgG2b κtype (#400314; BioLegend) were used. All antibodies were conjugated directly with phycoerythrin (PE). The immunostaining and analysis were performed according to the instructions from the manufacturer.

For `O=c1[nH]cc(F)c(=O)[nH]1` [5-FU, 5-fluorouracil], in the assay with CD13, the “positive rate of CD13” value is on record as “significantly increased”. Also, the IC50 (in general, the concentration needed to halve the response being measured) in the assay on HuH-1 came to 11.3 ± 6.3 µg/mL (≈ 86.9 µM); in the assay on HepG2, 39.5 ± 9.6 µg/mL (≈ 304 µM); with HLE it was 16.5 ± 6.6 µg/mL (≈ 127 µM); with PLC/PRF/5, 55.6 ± 11.2 µg/mL (≈ 427 µM); in the assay with SK-Hep1 cells, 4.3 ± 0.5 µg/mL (≈ 33.1 µM); with Hep3B, 5.9 ± 1.8 µg/mL (≈ 45.4 µM). The IC50 in the assay on HLF stood at 33.5 ± 17.2 µg/mL (≈ 258 µM); with HuH-7 it was 0.8 ± 0.1 µg/mL (≈ 6.15 µM). Also, in [1], the “sphere formation by surviving cells” value is given as “formed spheres”. In the assay with Ep-CAM^low cell lines, the “cell proliferation (alive cells)” value is “suppressed cell proliferation to the same extent as the combination of VB4-845 and 5-FU”. Further, in the assay on CD133, the “positive rate of CD133” value was “significantly increased”. The volume of tumors in assay [2] is 555±147 mm^3.
